The numbers were not newly measured in patent US20090035369A1, “Composition and Methods for Treating and Preventing Age-Related Macular Degeneration” (priority 2006, published 2009), which cites them from elsewhere.

For data set [1] the following is noted: pure DIM.
Another data set has as its system neovascularization. To be noted: rodent model.
The conditions of data set [2]: pure DIM. This is another data set of the same source.

Take `c1ccc2c(Cc3c[nH]c4ccccc34)c[nH]c2c1` [DIM, 3,3′-diindolylmethane]: in data set [1], the “absorption by the human body” value was “poorly absorbed”. Besides, the inhibition of neovascularization entry in the data set with neovascularization is recorded as “up to 76%”. Also, the solubility result in data set [2] is reported as “insoluble”.
